Laboratory results from EP0089143A1, “Diagnosis of kidney function” (AMERSHAM INTERNATIONAL plc, priority 1982, dated 1983).

How the values were obtained:
[1] = Biodistribution and renal clearance after injection into rats (bladder activity over time, dissection at 2 hr); format: in vivo; settings: for % in bladder of that at 2 hrs.: group value (4-8 animals)
Protocol: Solutions of complexes ^*1 and ^*2 from Example 1 were injected into rats and the biodistribution pattern noted. The results of these experiments in rats are summarised in Table 1 below, comparing the data on ^*1 and ^*2 with earlier data on TDG-Tc-99m, Hippuran -1-131 and DTPA-Tc-99m under identical conditions. In all cases, data from animal experiments was used only when the renal performance appeared "normal", i.e. no unilateral or bilateral renal retention. Data was also rejected in cases of significant retention of activity at the injection site.
The solution was filtered through a 0.22 micron membrane filter prior to administration to rats.
The solution was filtered through a 0.22 micron membrane filter prior to adminstration to rats.
A sealed nitrogen filled vial, containing the freeze dried formulation of 20mg TDG, 0.15 mg SnF2, 1 mg NaF and 0.5 mg sodium nitrate was treated with 2 ml of eluate from a technetium generator (6mCi/ml). The vial was allowed to stand at ambient temperature for 10 minutes, then heated in a boiling water bath for 15 minutes.

[2] = removal from the blood in a single pass through the kidney; cited from earlier work
[3] = dissection at 2 hr, group value

SMILES: O=C(O)CNC(=O)c1ccccc1[131I] [Hippuran-I-131, sodium iodo- hippurate, reference compound]
- hepatobiliary excretion [1]: some hepatobiliary excretion
- Dissection at 2 hr; % of injected dose: Bladder [1, 3]: 93.0 % of injected dose
- Dissection at 2 hr; % of injected dose: Kidneys [1, 3]: 0.2 % of injected dose
- Dissection at 2 hr; % of injected dose: Liver [1, 3]: 0.2 % of injected dose
- % in bladder of that at 2 hrs. ([1]; time 5 min): 33.4%
- % in bladder of that at 2 hrs. ([1]; time 10 min): 53.8%
- % in bladder of that at 2 hrs. ([1]; time 15 min): 63.9%
- % in bladder of that at 2 hrs. ([1]; time 20 min): 72.4%
- % in bladder of that at 2 hrs. ([1]; time 25 min): 80.5%
- % in bladder of that at 2 hrs. ([1]; time 30 min): 85.0%
- % in bladder of that at 2 hrs. ([1]; time 60 min): 93.0%
- removed in a single pass [2]: About 80%
